Laboratory results from patent US11911394B2, “Compound and method for the prevention of transmission of influenza virus” (Hoffmann-La Roche Inc., priority 2019, dated 2024).

Experiment: Example 5 pharmacokinetic analysis in ferret, plasma concentration by LC-MS/MS
Assay type: in vivo
Protocol: Outbred female and ferrets 28 months old and weighing between 650-802 g were obtained from Japan SLC, Inc. Identification was conducted by labeling sequential number in front of each cage. Animals were monitored at least once daily for their clinical observations, and had ad libitum access to pellet feed (LabDiet High Density Ferret Diet, Lab Supply, USA) and water. Ferrets at endpoint were euthanized by exsanguination under anesthesia by inhalation with isoflurane (Pfizer). Ferret studies were performed in Shionogi Pharmaceutical Research Center, Shionogi & Co., Ltd. (Osaka, Japan), according to the animal study protocol which was approved by the Institutional Animal Care and Use Committee in Shionogi.
The active form baloxavir acid (S-033447, hereafter BXA) was provided by Test Substance Control Personnel, Shionogi & Co., Ltd., Japan. The vehicle for BXA delivery was methyl cellulose (Fuji-Film Wako, Japan) in 0.5 w/v % aqueous solution prepared with sterile water (hereafter MC solution). BXA in suspension with MC solution (1 mg/mL) was prepared using an agate mortar and pestle, and was delivered to reversibly anaesthetised animals in a single treatment consisting of 4 subcutaneous injections at 4 locations on the dorsal region (total dose 4 mg/kg per animal). […]
The plasma concentration of BXA was determined by LC-MS/MS, consisting of LC-20A system (Shimadzu Corporation, Japan) and API 5000 (AB SCIEX, USA). […]
Precursor/product transitions (m/z) of 484/247 and 490/247 were monitored for BXA and internal standard, BXA-racemate-d4^18O, respectively. […]
The plasma concentrations of BXA for each individual ferret were calculated by Analyst software (AB SCIEX, USA). The mean value and standard deviation were also calculated using individual data by Microsoft Excel (Microsoft Co., USA).

O=C1c2c(O)c(=O)ccn2N([C@@H]2c3ccccc3SCc3c2ccc(F)c3F)[C@@H]2COCCN12 [baloxavir, baloxavir acid]
concentration at 168 h (plasma, subcutaneous, single s.c. suspension 4 mg/kg, 168 hours postdose, read-out: mean plasma concentration at last sampling point): 9.08 ng/mL | time at which mean plasma concentration reached the maximum (single s.c. suspension 4 mg/kg): 3 hours postdose | mean plasma concentration, maximum (single s.c. suspension 4 mg/kg (4 locations, 1 mg/kg per location), 3 hours postdose): 26.1 ng/mL
